Data set [1] deals with VEGFR2 (Homo sapiens (Human), UniProt P35968). Description: Inhibitory activity of VEGFR2 kinase (HTRF KinEASE-TK kit). In kind it is biochemical. Here is the method:
HTRF®KinEASE™-TK kit (Cat.62TKOPEC, Cisbio);
VEGFR2 (Cat: k2643, Sigma);
2.1 Preparation of VEGFR2 Kinase Reagent
1× kinase buffer: 1 mL 1× kinase buffer contained 200 μL 5× kinase buffer (Invitrogen), 5 μL, 1M MgCl2, 1 μL 1M DTT, 1 μL 1M MnCl2, and 793 μL ddH2O;
5×TK substrate-biotin and ATP working fluid: as the concentrations of TK substrate-biotin and ATP, please refer to Table 1. TK substrate-biotin and ATP were diluted with 1× kinase buffer to 5 folds of the reaction concentrations;
5× kinase working fluid: as the concentration of VEGFR2 kinase, please refer to Table 1. 5× kinase working fluid was prepared with 1× Kinase buffer;
4× Sa-XL665 working fluid: as the concentration of Sa-XL665 (Cisbio) in the reaction, please refer to Table 1. The 4× Sa-XL665 working fluid was prepared with assay buffer (Cisbio);
4×TK Ab-cryptate working fluid: TK Ab-Cryptate (Cisbio) was 100-fold diluted with assay buffer (Cisbio), as working fluid;
Experimental Procedure of HTRF KinEASE TK Kit
After all the reagents were prepared as described above, the reagents except for enzymes were equilibrated to room temperature, then adding samples were performed.
TK substrate-biotin, ATP, VEGFR2 kinase and a compound at a certain concentration were reacted in 1× kinase buffer at room temperature for 20 minutes. […] To all the reaction wells, 5 μl 4× Sa-XL665 working fluid and 5 μl 4×TK Ab-cryptate working fluid were added. After reacting at room temperature for 1 hours, fluorescence signal (excited at 320 nm, emitted at 665 nm, 615 nm) was detected by ENVISION detector (Perkinelmer). Based on the full-active well and the background signal well, the inhibition rate for each well was calculated, and the average value was used for duplicate wells. The half maximal inhibitory concentration (IC50) for each test compound was fitted by professional software Graphpad PRISM 5.0.
2.3 Data Analysis Emission light ratio (ER)=665 nm emission signal/615 nm emission signal Inhibition rate=(ERpositive−ERsample)/(ERpositive−ERnegative)*100%
HTRF KinEASE TK kit was used to determine the IC50 value of a compound for kinase VEGFR2. The final concentration of the compound started from 100 μM, and 4-fold gradient dilution was carried out to provide 10 concentrations. Duplicate wells were used for each concentration. The final concentration of DMSO was controlled to 1% in the reaction system.
Background: In TR-FRET formats the signal depends on donor and acceptor labels being close together.

The subject of data set [2] is SK-OV-3 human ovarian cancer cell strain. Description: In vitro anti-proliferation of tumor cells (CCK-8), SK-OV-3. The data set is classed as cell-based. The following applies: SK-OV-3, 72 hours. Here is the method: (§1) Experimental Example 2: Determination of the Compounds According to the Present Invention for IC50 of the In Vitro Anti-Proliferation of Tumor Cells
SK-OV-3 human ovarian cancer cell strain (purchased from Shanghai Institute of Cell Biology, Chinese Academy of Sciences);
(§2) Preparation of a compound: the compound was diluted with DMSO to a final concentration of 10 mM.
(§3) a) Cells in logarithmic growth phase were collected, counted, and re-suspended in complete medium. The concentration of cells was adjusted to a suitable concentration (determined depending on the result of optimization experiment of cell density), and the cells were seeded to a 96-well plate at 100 μl cell suspension per well. The cells were incubated in an incubator at 37° C., 100% relative humidity, 5% CO2 for 24 hours.
(§4) b) A test compound was diluted with the culture medium to 500 μM, and then gradient dilution was performed for 8 times. Cells were added at 25 μl/well. The final concentrations of the compound was in a range from 100 μM and 0 μM, 4-fold diluted, including 10 concentrations.
(§5) c) The cells were incubated in an incubator at 37° C., 100% relative humidity, 5% CO2 for 72 hours.
(§6) d) The culture medium was withdraw and discarded, the complete medium containing 10% CCK-8 was added, and then the cells were incubated in an incubator at 37° C. for 2-4 hours.
(§7) IC50 curve was fitted and IC50 value was calculated by professional software GraphPad Prism 5.0.
(§8) In the experiment, the compounds according to the present invention were determined for their IC50 values of in vitro anti-proliferation of tumor cell strains. The final concentrations of the compounds was in a range from 100 μM and 0 μM, 4-fold diluted, including 10 concentrations.

Data set [3] relates to HCT116 human colon cancer cell strain. Description: In vitro anti-proliferation of tumor cells (CCK-8), HCT-116. The data set is classed as cell-based. To be noted: HCT-116, 72 hours. Here is the method:
as §1
HCT116 human colon cancer cell strain (purchased from Shanghai Institute of Cell Biology, Chinese Academy of Sciences);
as §2, §3, §4, §5, §6, §7, §8

The subject of data set [4] is 786-O human renal clear cell carcinoma cell strain. The data set is described as follows: In vitro anti-proliferation of tumor cells (CCK-8), 786-O. The data set is classed as cell-based. The following applies: 786-0, 72 hours. Here is the method:
as §1
786-O human renal clear cell carcinoma cell strain (purchased from Shanghai Institute of Cell Biology, Chinese Academy of Sciences);
as §2, §3, §4, §5, §6, §7, §8

Data set [5] relates to A498 human renal carcinoma cell strain. The data set is described as follows: In vitro anti-proliferation of tumor cells (CCK-8), A498. The data set is classed as cell-based. The following applies: A498, 72 hours. Here is the method: as §1
A498 human renal carcinoma cell strain (purchased from Shanghai Institute of Cell Biology, Chinese Academy of Sciences);
as §2, §3, §4, §5, §6, §7, §8

Data set [6] has as its system MDA-MB-231 human mammary cancer cell strain. Description: In vitro anti-proliferation of tumor cells (CCK-8), MDA-MB-231. In kind it is cell-based. Here is the method:
as §1
MDA-MB-231 human mammary cancer cell strain (purchased from Shanghai Institute of Cell Biology, Chinese Academy of Sciences);
as §2, §3, §4, §5, §6, §7, §8

Data set [7] concerns MiaPaCa-2 human pancreatic cancer cell strain. The data set is described as follows: In vitro anti-proliferation of tumor cells (CCK-8), MiaPaCa-2. The following applies: MIA PaCa-2, MiaPaCa-2, 72 hours. In kind it is cell-based. How it is done: as §1
MiaPaCa-2 human pancreatic cancer cell strain (purchased from American ATCC);
as §2, §3, §4, §5, §6, §7, §8

Data set [8] deals with HepG2 human liver cancer cell strain. The data set is described as follows: In vitro anti-proliferation of tumor cells (CCK-8), HepG2. In kind it is cell-based. The following applies: HepG2, 72 hours. Here is the method:
as §1
HepG2 human liver cancer cell strain (purchased from Shanghai Institute of Cell Biology, Chinese Academy of Sciences);
as §2, §3, §4, §5, §6, §7, §8

Data set [9] relates to NCI-H460 Human large cell lung cancer cell strain. The data set is described as follows: In vitro anti-proliferation of tumor cells (CCK-8), NCI-H460. The data set is classed as cell-based. The following applies: NCI-H460, 72 hours. Here is the method: as §1
NCI-H460 Human large cell lung cancer cell strain (purchased from Shanghai Institute of Cell Biology, Chinese Academy of Sciences);
as §2, §3, §4, §5, §6, §7, §8

In data set [10] the test system is HL-60 human acute myeloid leukemia cell strain. The data set is described as follows: In vitro anti-proliferation of tumor cells (CCK-8), HL-60. In kind it is cell-based. To be noted: HL-60, 72 hours. How it is done:
as §1
HL-60 human acute myeloid leukemia cell strain (purchased from Shanghai Institute of Cell Biology, Chinese Academy of Sciences);
as §2, §3, §4, §5, §6, §7, §8

Data set [11] can be described thus: Pharmacokinetics in mice. The data set is classed as in vivo. The following applies: female, plasma, CD-1 mouse. How it is done: Administration route: intravenous injection (IV); per os (PO).
Fasting condition: free access to water, no fasting.
The mice were weighed before administration, and the administration volume was calculated based on their body weights (IV group: 4 mL/kg; PO group: 10 mL/kg).
Administration route and dose: Intravenous (IV) group: 1 mg/kg; Oral (PO) group: 5 mg/kg.
Animal grouping: 3 mice/group, an IV group and a PO group for each test compound.
After administration, 30 μL whole blood was collected from rim of the eyes of mice in the IV group at each pre-determined time point (5 min, 15 min, 30 min, 1 h, 2 h, 4 h, 8 h, 24 h), and 30 μL whole blood was collected from rim of the eyes of mice in the PO group at each pre-determined time point (15 min, 30 min, 1 h, 2 h, 4 h, 8 h, 24 h). The whole blood was centrifuged (6,000 rpm, 5 min) to get blood plasma. All the blood plasma samples were stored in a refrigerator of −80° C. for further analysis.
Conditions of LC/MS/MS was as follows:
Pharmacokinetic parameters were estimated according to non-compartment model (calculated by WinNonlin software): […]
IV paramater: t1/2 (hr); C0 (ng/mL); AUClast (hr*ng/mL); AUCInf (hr*ng/mL); AUC Extr (%); Vz (L/kg); Vss (L/kg); CL (mL/min/kg); MRT (hr).
PO parameter: t1/2 (hr); tmax (hr); Cmax (ng/mL); AUClast (hr*ng/mL); AUCInf (hr*ng/mL); AUC Extr (%); MRT (hr); AUC/D (hr*mg/mL); F (%).

The structures appear in SMILES notation.

VEGFR2, sequence (P35968 20-1356): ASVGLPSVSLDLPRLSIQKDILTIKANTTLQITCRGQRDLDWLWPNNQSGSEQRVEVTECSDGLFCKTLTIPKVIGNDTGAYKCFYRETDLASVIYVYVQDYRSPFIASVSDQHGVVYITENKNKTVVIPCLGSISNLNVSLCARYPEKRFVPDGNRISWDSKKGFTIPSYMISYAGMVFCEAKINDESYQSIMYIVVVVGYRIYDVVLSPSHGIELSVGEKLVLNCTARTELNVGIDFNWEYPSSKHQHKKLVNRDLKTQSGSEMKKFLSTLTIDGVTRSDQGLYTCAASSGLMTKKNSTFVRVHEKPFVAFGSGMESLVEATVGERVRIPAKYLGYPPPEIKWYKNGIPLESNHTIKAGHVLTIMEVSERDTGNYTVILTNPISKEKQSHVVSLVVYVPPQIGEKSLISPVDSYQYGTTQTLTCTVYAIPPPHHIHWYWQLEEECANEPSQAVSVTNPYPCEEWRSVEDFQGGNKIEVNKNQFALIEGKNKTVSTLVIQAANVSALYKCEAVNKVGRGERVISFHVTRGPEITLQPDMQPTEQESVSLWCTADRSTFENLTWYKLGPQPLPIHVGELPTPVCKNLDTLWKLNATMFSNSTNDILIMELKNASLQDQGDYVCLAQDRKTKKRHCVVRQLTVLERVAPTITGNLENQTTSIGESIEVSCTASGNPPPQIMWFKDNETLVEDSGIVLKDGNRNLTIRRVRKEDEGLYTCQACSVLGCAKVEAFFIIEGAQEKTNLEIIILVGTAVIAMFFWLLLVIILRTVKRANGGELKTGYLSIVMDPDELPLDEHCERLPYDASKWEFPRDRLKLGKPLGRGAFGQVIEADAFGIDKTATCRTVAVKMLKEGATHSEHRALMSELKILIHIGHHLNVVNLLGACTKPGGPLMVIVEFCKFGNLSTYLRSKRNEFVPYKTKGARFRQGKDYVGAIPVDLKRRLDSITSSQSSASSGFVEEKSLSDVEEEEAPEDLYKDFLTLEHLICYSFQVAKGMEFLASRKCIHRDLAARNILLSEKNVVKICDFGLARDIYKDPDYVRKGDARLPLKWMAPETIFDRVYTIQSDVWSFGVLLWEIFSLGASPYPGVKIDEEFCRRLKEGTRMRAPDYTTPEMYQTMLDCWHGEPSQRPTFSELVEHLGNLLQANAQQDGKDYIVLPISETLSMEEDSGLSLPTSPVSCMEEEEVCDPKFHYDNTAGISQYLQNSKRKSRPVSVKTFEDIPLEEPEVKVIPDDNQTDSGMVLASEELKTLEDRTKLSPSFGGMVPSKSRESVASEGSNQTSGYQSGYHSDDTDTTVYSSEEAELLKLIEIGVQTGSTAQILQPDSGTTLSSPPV

In general, IC50 refers to the point on the concentration scale where inhibition reaches its midpoint. Read a low IC50 as greater potency in that assay. The term bioavailability denotes the share of a dose that reaches the circulation, judged against a reference dose that is usually intravenous. Consider `Cn1cc(-c2nccc(Oc3ccc(NC(=O)Nc4ccc(Cl)c(C(F)(F)F)c4)cc3)c2F)cn1` [Example 1, 1-(4-chloro-3-(trifluoromethyl)phenyl)-3-(4-(3-fluoro-2-(1-methyl-4-pyrazolyl)-pyridin-4-yl-oxy)phenyl)urea], for which the IC50 in data set [1] (ATP 5 μM, 20 minutes, room temperature) is 28.6 nM; in [2] it was 7140 nM; in [3], 2770 nM; in [4], 2430 nM; in data set [5] it was 4940 nM; in [6] (Homo sapiens, MDA-MB-231, 72 hours, CCK-8), 2820 nM. In addition, the half-inhibitory concentration (IC50) in [7] worked out at 2040 nM; in [8] it was 721 nM; in data set [9] it was 939 nM; in data set [10] it was 17100 nM. In addition, the “inhibitory activity as fold of that of Comparative compound 2” value in [1] (VEGFR2 kinase) came out at 6.6 fold. Further, the “inhibitory activity as fold of that of Sorafenib” value in data set [1] (VEGFR2 kinase) amounted to 3.13 fold. Moreover, the “IC50 value as fold of that of Comparative compound 2” value in data set [1] (VEGFR2 kinase, ratio of IC50) is listed as 0.15 fold. Moreover, the “IC50 value as fold of that of Sorafenib (free base)” value in [1] (VEGFR2 kinase, ratio of IC50) came out at 0.32 fold. Besides, the “IC50 as fold of that of Sorafenib” value in data set [6] (MDA-MB-231 cell line) came to 0.28 fold. Further, the bioavailability in [11] (PO 5 mg/kg vs IV 1 mg/kg, read-out: F (oral bioavailability)) came to 90.3%. In [11] (PO 5 mg/kg, average of three mice, read-out: AUClast (area under the curve)), the AUC(0-t) turned out to be 39600 ng·h/mL. Moreover, the Cmax in [11] (PO 5 mg/kg, average of three mice, read-out: Cmax (peak concentration)) came to 1910 ng/mL.

The record behind these values is US9902709B2, “Polysubstituted pyridine compound, preparation method, use and pharmaceutical composition” (PEKING UNIVERSITY FOUNDER GROUP CO., LTD., priority 2014, dated 2018).
